Experimental data reported in ChEMBL document CHEMBL4507325 (2021).

Target: Branched-chain-amino-acid aminotransferase, mitochondrial (Homo sapiens, UniProt O15382)
Sequence (O15382 whole entry): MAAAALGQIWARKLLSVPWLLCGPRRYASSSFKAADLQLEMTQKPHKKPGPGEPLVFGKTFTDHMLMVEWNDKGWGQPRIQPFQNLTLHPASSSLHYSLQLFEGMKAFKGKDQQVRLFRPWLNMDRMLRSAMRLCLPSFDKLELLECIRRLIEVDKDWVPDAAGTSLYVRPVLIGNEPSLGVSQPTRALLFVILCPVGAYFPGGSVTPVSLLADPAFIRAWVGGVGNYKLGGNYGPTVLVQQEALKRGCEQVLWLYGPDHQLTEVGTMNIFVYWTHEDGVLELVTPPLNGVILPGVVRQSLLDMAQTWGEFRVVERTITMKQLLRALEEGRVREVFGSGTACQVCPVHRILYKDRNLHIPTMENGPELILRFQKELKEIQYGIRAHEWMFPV

IC50: 10.8 µM (not active)
SMILES: Cc1ccccc1Oc1cc(-n2c(=O)cc(C(F)(F)F)[nH]c2=O)c2ccccc2c1 [BAY-771]
